This test concerns the target T1, human mPGES-1 (Homo sapiens, UniProt O14684).
T1 construct: made in house; host or cells: COS-1 cells (transient transfection; microsomal fraction used as enzyme)
T1 sequence (O14684 1-152): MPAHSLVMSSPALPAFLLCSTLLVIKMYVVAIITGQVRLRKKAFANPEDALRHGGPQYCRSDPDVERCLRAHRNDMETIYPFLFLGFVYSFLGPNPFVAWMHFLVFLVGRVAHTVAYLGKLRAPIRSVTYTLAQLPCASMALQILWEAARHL
Nature of the test: Test for mPGES-1 inhibitory activity (microsomal enzyme, PGE2 EIA). The format is biochemical. Particulars: 4° C., 4 minutes, read-out: h mPGES1 IC50. In a few lines: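 Enzyme source was microsomes from COS-1 cells transiently expressing human mPGES-1, in sodium phosphate pH 7.2 with 2.5 mM GSH, 1 mM EDTA and 2% DMSO final. After a 15 min preincubation with compound at 4 °C, 1 μM PGH2 (final) reacted for 4 min at 4 °C.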

Setting [1] is: microsomes of COS-1 cells transfected with human mPGES-1 cDNA, PGH2 1 μM, PGE2 by EIA.
The mark [2] stands for this setting: microsomes from COS-1 cells transfected with human mPGES-1 cDNA, substrate PGH2 1 μM, PGE2 measured by EIA.

The structures appear in SMILES notation. pIC50: −log10 of the molar value. Read-outs that look alike come from different tables or passages of the source.

The term pIC50 denotes −log10 of the IC50, conventionally taken in molar units. On to `Cc1cc(=O)[nH]c(-c2c(C(F)(F)F)ccc(CNC(=O)[C@H]3C[C@H](OCc4cc(F)cc(Cl)c4)C3)c2F)n1` [Example 194, trans-3-[(3-chloro-5-fluorobenzyl)oxy]-N-[2-fluoro-3-(4-methyl-6-oxo-1,6-dihydropyrimidin-2-yl)-4-(trifluoromethyl)benzyl]cyclobutane-1-carboxamide], for which the negative logarithm of the IC50 (pIC50) under setting [1] is 8.44.
As for `Cc1nc(-c2c(C(F)(F)F)ccc(CNC(=O)[C@H]3CC[C@H](OCc4cc(F)cc(Cl)c4)CC3)c2F)[nH]c(=O)c1F` [Example 131, trans-4-[(3-chloro-5-fluorobenzyl)oxy]-N-[2-fluoro-3-(5-fluoro-4-methyl-6-oxo-1,6-dihydropyrimidin-2-yl)-4-(trifluoromethyl)benzyl]cyclohexane-1-carboxamide], under setting [2], the pIC50 was over 9.00.
With `CCc1cc(=O)[nH]c(-c2c(C(F)(F)F)ccc(CNC(=O)[C@H]3C[C@H](OCc4ccc(F)cc4Cl)C3)c2F)n1` [Example 207, trans-3-[(2-chloro-4-fluorobenzyl)oxy]-N-[3-(4-ethyl-6-oxo-1,6-dihydropyrimidin-2-yl)-2-fluoro-4-(trifluoromethyl)benzyl]cyclobutane-1-carboxamide], under setting [1], the pIC50 was 8.05.
For `Cc1cc(=O)[nH]c(-c2c(C(F)(F)F)ccc(CNC(=O)C3CCN(c4ccc(OC(F)(F)F)cc4)CC3)c2F)n1` [Example 87, N-[2-fluoro-3-(4-methyl-6-oxo-1,6-dihydropyrimidin-2-yl)-4-(trifluoromethyl)benzyl]-1-[4-(trifluoromethoxy)phenyl]piperidine-4-carboxamide], the negative logarithm of the IC50 (pIC50) under setting [2] is 7.41.
Take `O=c1cc(C(F)(F)F)nc(-c2c(C(F)(F)F)ccc(CNC(=O)[C@H]3C[C@H](OCc4cc(F)cc(F)c4)C3)c2F)[nH]1` [Example 151, trans-3-[(3,5-difluorobenzyl)oxy]-N-{2-fluoro-3-[6-oxo-4-(trifluoromethyl)-1,6-dihydropyrimidin-2-yl]-4-(trifluoromethyl)benzyl}cyclobutane-1-carboxamide]: the pIC50 under setting [1] was over 9.00.
For the molecule `O=C(NCc1ccc(C(F)(F)F)c(-c2nc(C(F)(F)F)cc(=O)[nH]2)c1F)C1CCN(c2ccc(Cl)cc2F)CC1` [Example 70, 1-(4-chloro-2-fluorophenyl)-N-{2-fluoro-3-[6-oxo-4-(trifluoromethyl)-1,6-dihydropyrimidin-2-yl]-4-(trifluoromethyl)benzyl}piperidine-4-carboxamide], the pIC50 under setting [2] is 8.00.
`Cc1cc(=O)[nH]c(-c2c(C(F)(F)F)ccc(CNC(=O)[C@H]3CC[C@H](OCc4cccc(C(F)(F)F)c4)CC3)c2F)n1` [Example 109, trans-N-[2-fluoro-3-(4-methyl-6-oxo-1,6-dihydropyrimidin-2-yl)-4-(trifluoromethyl)benzyl]-4-{[3-(trifluoromethyl)benzyl]oxy}cyclohexane-1-carboxamide]: the negative-log IC50 (pIC50) under setting [2] was 8.00.
For the molecule `O=c1cc(C(F)F)nc(-c2c(C(F)(F)F)ccc(CNC(=O)[C@H]3C[C@H](OCc4cc(Cl)ccc4F)C3)c2F)[nH]1` [Example 175, trans-3-[(5-chloro-2-fluorobenzyl)oxy]-N-{3-[4-(difluoromethyl)-6-oxo-1,6-dihydropyrimidin-2-yl]-2-fluoro-4-(trifluoromethyl)benzyl}cyclobutane-1-carboxamide], the pIC50 under setting [1] was over 9.00.
`O=c1cc(C(F)F)nc(-c2c(C(F)(F)F)ccc(CNC(=O)[C@H]3CC[C@H](OCc4ccccc4Cl)CC3)c2F)[nH]1` [Example 103, trans-4-[(2-chlorobenzyl)oxy]-N-{3-[4-(difluoromethyl)-6-oxo-1,6-dihydropyrimidin-2-yl]-2-fluoro-4-(trifluoromethyl)benzyl}cyclohexane-1-carboxamide]: the pIC50 under setting [2] is over 9.00.
As to `Cc1cc(=O)[nH]c(-c2c(C(F)(F)F)ccc(CNC(=O)[C@H]3C[C@H](OCc4cc(Cl)ccc4F)C3)c2F)n1` [Example 192, trans-3-[(5-chloro-2-fluorobenzyl)oxy]-N-[2-fluoro-3-(4-methyl-6-oxo-1,6-dihydropyrimidin-2-yl)-4-(trifluoromethyl)benzyl]cyclobutane-1-carboxamide], under setting [1], the pIC50 was over 9.00.

Values taken from patent US20250340557A1, “PYRIMIDINE DERIVATIVE” (ASKA PHARMACEUTICAL CO., LTD., priority 2022, published 2025).
